Reference: the supplement of paper PMC8671470

Experiments:
Conditions in all cases: 72 h
[1] = tested on: myeloid leukemia patient primary cells Pat.1; assay: cell viability (% survival relative to DMSO control); higher = less cytotoxic
Method in brief: (§1)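 Thawed mononuclear cells from AML or CML patients were purified on Ficoll and cultured for 72 h in RPMI 1640 with 10% FBS, at 10,000 cells/well, on 384-well plates carrying 70 pre-printed compounds at 1–10,000 nM in five tenfold steps, in duplicate. Viability came from CellTiter-Glo, normalised against DMSO and against 10 μM proteasome inhibitor. Any area under the curve given was derived from log-logistic curve fits in the drc and PharmacoGx R packages, and these fits had four parameters.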

[2] = tested on: myeloid leukemia patient primary cells Pat.8; assay: as above
Method in brief: as §1

[3] = tested on: myeloid leukemia patient primary cells Pat.4; assay: as above
Method in brief: as §1

[4] = tested on: myeloid leukemia patient primary cells Pat.2; assay: as above
Method in brief: as §1

[5] = tested on: myeloid leukemia patient primary cells Pat.6; assay: as above
Method in brief: as §1

[6] = tested on: myeloid leukemia patient primary cells Pat.10; assay: as above
Method in brief: as §1

[7] = tested on: myeloid leukemia patient primary cells Pat.13; assay: as above
Method in brief: as §1

[8] = tested on: myeloid leukemia patient primary cells Pat.3; assay: as above
Method in brief: as §1

[9] = tested on: myeloid leukemia patient primary cells Pat.11; assay: as above
Method in brief: as §1

[10] = tested on: myeloid leukemia patient primary cells Pat.15; assay: as above
Method in brief: as §1

[11] = tested on: myeloid leukemia patient primary cells Pat.12; assay: as above
Method in brief: as §1

[12] = tested on: myeloid leukemia patient primary cells Pat.14; assay: as above
Method in brief: as §1

[13] = tested on: myeloid leukemia patient primary cells Pat.5; assay: as above
Method in brief: as §1

[14] = tested on: myeloid leukemia patient primary cells Pat.7; assay: as above
Method in brief: as §1

[15] = tested on: myeloid leukemia patient primary cells Pat.9; assay: as above
Method in brief: as §1

[16] = tested on: myeloid leukemia patient primary cells Pat.4; assay: area under dose-response curve (viability, 1 nM-10 uM) (fraction (0-1)); higher = more sensitive
Procedure: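 AUC (0–1, higher = more sensitive) of the 5-point dose–response (1 nM–10 µM, 72 h, CellTiter-Glo) in primary AML/CML patient mononuclear cells. 0.030103 is the floor for inactive compounds.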

HL-60 = tested on: HL-60
Method in brief: (§2)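 The IC50 was read from log-logistic dose–response fits. Fifteen myeloid leukaemia lines were exposed for 72 h at 37 °C with 5% CO2 to five tenfold doses from 1 to 10,000 nM in duplicate. ATP luminescence, normalised to vehicle and to a 10 µM positive control, was fitted with four parameters.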

ML-2 = tested on: ML-2
Method in brief: as §2

THP-1 = tested on: THP-1
Method in brief: as §2

SHI-1 = tested on: SHI-1
Method in brief: as §2

BV-173 = tested on: BV-173
Method in brief: as §2

KCL-22 = tested on: KCL-22
Method in brief: as §2

LAMA-84 = tested on: LAMA-84
Method in brief: as §2

HEL = tested on: HEL
Method in brief: as §2

KG-1 = tested on: KG-1
Method in brief: as §2

KU-812 = tested on: KU-812
Method in brief: as §2

Mono-Mac-6 = tested on: Mono-Mac-6
Method in brief: as §2

K-562 = tested on: K-562
Method in brief: as §2

NOMO-1 = tested on: NOMO-1
Method in brief: as §2

MOLM-13 = tested on: MOLM-13
Method in brief: as §2

COC(=O)[C@]12CCC(C)(C)C[C@H]1[C@H]1C(=O)C=C3[C@@]4(C)C=C(C#N)C(=O)C(C)(C)[C@@H]4CC[C@@]3(C)[C@]1(C)CC2 [Bardoxolone methyl]
cell viability ([1]; 1 nM): 85.8%
cell viability ([1]; 10 nM): 68.1%
cell viability ([1]; 100 nM): 61.9%
cell viability ([1]; 1000 nM): 61.3%
cell viability ([1]; 10000 nM): 2.44%
cell viability ([2]; 1 nM): 67.7%
cell viability ([2]; 10 nM): 97.5%
cell viability ([2]; 100 nM): 78.5%
cell viability ([2]; 1000 nM): 9.52%
cell viability ([2]; 10000 nM): 61.5%
cell viability ([3]; 1 nM): 84.5%
cell viability ([3]; 10 nM): 96.4%
cell viability ([3]; 100 nM): 33.3%
cell viability ([3]; 1000 nM): 70%
cell viability ([3]; 10000 nM): 1.48%
cell viability ([4]; 1 nM): > 100%
cell viability ([4]; 10 nM): 93.5%
cell viability ([4]; 100 nM): 78.5%
cell viability ([4]; 1000 nM): 34.7%
cell viability ([4]; 10000 nM): 77.6%
cell viability ([5]; 1 nM): 99.8%
cell viability ([5]; 10 nM): 81.4%
cell viability ([5]; 100 nM): 75%
cell viability ([5]; 1000 nM): 17.6%
cell viability ([5]; 10000 nM): 72.1%
cell viability ([6]; 1 nM): 82.4%
cell viability ([6]; 10 nM): 56%
cell viability ([6]; 100 nM): 11.8%
cell viability ([6]; 1000 nM): 2.87%
cell viability ([6]; 10000 nM): 91.9%
cell viability ([7]; 1 nM): 86.5%
cell viability ([7]; 10 nM): 80.8%
cell viability ([7]; 100 nM): 57.3%
cell viability ([7]; 1000 nM): 4.17%
cell viability ([7]; 10000 nM): 31.2%
cell viability ([8]; 1 nM): 83.7%
cell viability ([8]; 10 nM): 74.8%
cell viability ([8]; 100 nM): 10.9%
cell viability ([8]; 1000 nM): 0.308%
cell viability ([8]; 10000 nM): < 0%
cell viability ([9]; 1 nM): > 100%
cell viability ([9]; 10 nM): 91.2%
cell viability ([9]; 100 nM): 87.7%
cell viability ([9]; 1000 nM): > 100%
cell viability ([9]; 10000 nM): 7.29%
cell viability ([10]; 1 nM): 95.2%
cell viability ([10]; 10 nM): 79.4%
cell viability ([10]; 100 nM): 21.8%
cell viability ([10]; 1000 nM): 69%
cell viability ([10]; 10000 nM): 0.4%
cell viability ([11]; 1 nM): 97.3%
cell viability ([11]; 10 nM): 92.7%
cell viability ([11]; 100 nM): 77.3%
cell viability ([11]; 1000 nM): 95.8%
cell viability ([11]; 10000 nM): 52.6%
cell viability ([12]; 1 nM): 73.4%
cell viability ([12]; 10 nM): 72.5%
cell viability ([12]; 100 nM): 47%
cell viability ([12]; 1000 nM): 2.03%
cell viability ([12]; 10000 nM): 25.8%
cell viability ([13]; 1 nM): 65.9%
cell viability ([13]; 10 nM): 47.9%
cell viability ([13]; 100 nM): 5.56%
cell viability ([13]; 1000 nM): 6.86%
cell viability ([13]; 10000 nM): 7.88%
cell viability ([14]; 1 nM): 97.6%
cell viability ([14]; 10 nM): 67.2%
cell viability ([14]; 100 nM): 2.85%
cell viability ([14]; 1000 nM): < 0%
cell viability ([14]; 10000 nM): < 0%
cell viability ([15]; 1 nM): 65.1%
cell viability ([15]; 10 nM): 25.4%
cell viability ([15]; 100 nM): 0.492%
cell viability ([15]; 1000 nM): 0.773%
cell viability ([15]; 10000 nM): 3.59%
area under dose-response curve [16]: 0.158
IC50 (cell viability) (HL-60): > 10 µM
IC50 (cell viability) (ML-2): 1.64 µM
IC50 (cell viability) (THP-1): 7.05 µM
IC50 (cell viability) (SHI-1): > 10 µM
IC50 (cell viability) (BV-173): 1.22 µM
IC50 (cell viability) (KCL-22): 1.14 µM
IC50 (cell viability) (LAMA-84): > 10 µM
IC50 (cell viability) (HEL): 2.24 µM
IC50 (cell viability) (KG-1): 1.09 µM
IC50 (cell viability) (KU-812): 9.5 µM
IC50 (cell viability) (Mono-Mac-6): 0.79 µM
IC50 (cell viability) (K-562): > 10 µM
IC50 (cell viability) (NOMO-1): > 10 µM
IC50 (cell viability) (MOLM-13): > 10 µM
